Test results reported in patent publication US4859707A, “Sulfur-substituted phenylacetamides” (Key Pharmaceuticals, Inc., priority 1983, dated 1989).

Assays:
[1] = tested on: esterase (carboxylic-ester hydrolase, EC 3.1.1.1); experiment: Stability toward purified esterases: esterase (carboxylic-ester hydrolase, EC 3.1.1.1); assay type: in vitro ADME, porcine; settings: pH 8.0, 37.0° C., over 2-3 hours
Protocol: (§1) The effect of esterase (carboxylic-ester hydrolase, EC 3.1.1.1) and butyryl cholinesterase (EC 3.1.1.8), isolated from porcine liver and horse serum, was tested as follows: A portion of the enzyme and […] of a standard solution of the compound in methanol were added to 2.50 ml of 0.05M TRIS buffer, pH 8.0, previously equilibrated to 37.0° C., resulting in solutions containing 5.2 units of enzyme and 0.4 mg of compound in one ml. Aliquots ([…]) were injected into the column at various intervals.

[2] = tested on: butyryl cholinesterase (EC 3.1.1.8); experiment: Stability toward purified esterases: butyryl cholinesterase (EC 3.1.1.8); assay type: in vitro ADME, horse; settings: pH 8.0, 37.0° C., over 2-3 hours
Protocol: as §1

[3] = In vivo evaluation in rats (blood, urine and feces levels); design: species or system female Wistar rats; settings: for Compound in urine after intravenous injection: i.v.
Protocol: A solution of test compound in DMSO was injected slowly through the jugular vein (65 mg/kg) to a group of female Wistar rats (150-200 g), 1.00 ml blood samples were taken at various time intervals, mixed with 2.00 ml of ice cold acetonitrile, and placed in a freezer. When all samples had been collected, they were centrifuged and the supernatant analyzed by HPLC. In a separate experiment urine samples were collected after i.v. administration of the test compound. A solution of test compound in polyethylene glycol was given p.o. to a group of rats (0.25 g/kg) and blood samples analyzed as before. Also, urine and feces samples were analyzed after p.o. administration of the test compound.

[4] = Stability toward human plasma; assay type: in vitro ADME; settings: 37.0° C., over 2-3 hours
Protocol: The freshly collected human plasma was stored in a refrigerator and used within 1 week from the date it was collected. A portion of […] at a standard methanol solution of the compound to be tested was mixed with 7.0 ml of plasma, previously equilibrated to 37.0° C., to result in an initial concentration of 0.2 mg/ml. Samples of 1.0 ml were withdrawn from the test medium, mixed immediately with 4.0 ml of ice cold 95% ethanol, and placed in a freezer. When all samples had been collected, they were centrifuged and the supernatant analyzed by HPLC.

[5] = Estimation of LD50 in mice; settings: mouse, in vivo, ip, intraperitoneal in dimethylsulfoxide, observed for 48 hr
From the text: The LD50 in white CD-1 male mice (average mass, 24.0±0.1 g) was estimated.

[6] = Metabolism in bovine liver microsomal preparations; assay type: in vitro ADME; settings: 37.0° C., pH 8.0, 1 mg/ml
Protocol: Two kg of minced bovine liver were mixed with 4 liters of homogenization medium (0.34M sucrose, 1 mM EDTA, and 5 mM TRIS-HCI buffer ph 7.5) and sieved through a screen. The sieved tissue was homogenized for 2 min in a Tekmar grinder. The homogenate was centrifuged successively at 980 g for 10 min and 10960 g for 10 min. The resulting supernatant was then centrifuged at 31300 g for 45 min. All procedures were carried out at 4° C. The microsomal pallet was suspended in an equal volume of 20 mM TRIS-HCI buffer pH 8.0 containing 1 mM EDTA. Centrifugation of this suspension at 123000 g for 90 min gave a pallet which is referred to as the washed microsomes. This pallet could be stored frozen for months with little loss of activity.
The washed microsomes were mixed in a ratio of 1:2 (v/v) with 50 mM TRIS-HCI buffer ph 8.0. To 3.0 ml of this solution, previously equilibrated to 37.0° C., was added 0.2 ml of a standard solution of the compound to be tested resulting in an initial concentration of 1 mg/ml. Samples of 0.50 ml were withdrawn from the test medium, mixed immediately with 1.0 ml of ice cold 95% ethanol and place in a freezer. When all samples had been collected, they were centrifuged and the supernatant analyzed by HPLC.

[7] = tested on: ventricular arrhythmia; experiment: Evaluation of antiarrhythmic activity in dogs (ouabain-induced ventricular arrhythmia); assay type: in vivo, dog; settings: for minimal effective dose: Canis lupus familiaris, iv, ouabain arrhythmia, i.v. infusion 0.5 mg/kg/min, read-out: Dose ± s.d. (dose of compound producing reversion to normal rhythm); for Duration of normal sinus rhythm after drug infusion: after end of i.v. infusion; for Dose required to produce reversion to normal rhythm relative to lidocaine / Duration of the effect relative to lidocaine: compared with lidocaine; for Arrhythmia activity in dogs: in words
Protocol: Dogs of either sex were anesthetized with pentabarbital sodium, 30 mg/kg, i.v. A lead II EKG was recorded and heart rate monitored on a Grass polygraph with appropriate signal treatment modules. […] After a 20 minute stabilization period during which fast paper speed record segments (100 mm/sec) were taken to assess EKG profile, a […] dose of ouabain was injected intravenously as bolus. This was followed by 5 mg/kg doses of ouabain i.v., every 10 minutes, until a ventricular arrthymias occured--at lest 50% ventricular or septal ectopic beats. This usually occurred after a total dose of about 60 mg/kg. After 10 min of sustained arrhythmia, the compound to be tested was given by i.v. in fusion at a rate of 0.5 mg/kg/min (2 ml/min, flow-rate). The infusion was maintained until a normal sinus node heart rhythm was noted. The infusion was stopped and the total dose of compound administered was determined. The length of time that the normal sinus rhythm persisted after the end of infusion of the compound was also determined.
In the table above, "dose" is dose of compound mg/kg producing reversion to normal rhythm. "Duration" is duration in minutes of normal sinus rhythm after drug infusion.

[8] = intravenous, after uptake by highly perfused organs; cited from earlier work

Structure (SMILES) | Stability / degradation by esterase [1] | Stability / degradation by butyryl cholinesterase [2] | Compound in urine after intravenous injection [3] | Unchanged compound in blood ([3]; p.o.) | Unchanged compound in urine ([3]; p.o.) | Absorption after oral administration ([3]; p.o. 0.25 g/kg) | dose excreted ([3]; rat, feces, po, 250 mg/kg, p.o., read-out: Unchanged compound in feces) | Stability / degradation in human plasma [4] | LD50 at 48 h [5] | Hydrolysis by bovine liver microsomes [6] | minimal effective dose [7] | Duration of normal sinus rhythm after drug infusion [7] | Dose required to produce reversion to normal rhythm relative to lidocaine [7] | Duration of the effect relative to lidocaine [7] | Arrhythmia activity in dogs [7] | Bioavailability ([3]; p.o.) | Unchanged compound in feces (in words) ([3]; p.o.) | Part of the dose left in blood [8]
Cc1cccc(C)c1NC(=O)C[S+](C)C [Example 2, 2-Dimethylsulfonic-N-(2,6-dimethylphenyl)acetamide iodide] | no degradation could be observed over a period of 2-3 hours | no degradation could be observed over a period of 2-3 hours | Only minimal amounts | significant amounts of the unchanged compound could be detected in the blood | nothing in the urine | absorbed slowly | ~7% | no degradation could be observed over a period of 2-3 hours | 300 mg/kg | hydrolyzed very slowly | 3.82 ± 0.85 mg/kg | > 15 min | somewhat larger doses were required | much longer | considerable arrhythmia activity |  |  | 
CCSCC(=O)Nc1c(C)cccc1C [Example 5, 2-Ethylthio-N-(2,6-dimethylphenyl)acetamide] | no degradation could be observed over a period of 2-3 hours | no degradation could be observed over a period of 2-3 hours | Only minimal amounts |  | no unchanged compound could be detected in the feces or the urine |  |  | no degradation could be observed over a period of 2-3 hours | 2100 mg/kg |  | 2.5 ± 2.8 mg/kg | > 20 min | somewhat larger doses were required | much longer | considerable arrhythmia activity | good bioavailability | no unchanged compound could be detected in the feces or the urine | 
CCN(CC)CC(=O)Nc1c(C)cccc1C [lidocaine, reference compound] |  |  |  |  |  |  |  |  |  |  | 1.84 ± 0.32 mg/kg | 1.23 ± 0.37 min |  |  |  |  |  | about 15%
